Data taken from patent US20120010253A1, “Fungicidal compositions comprising Fluopyram and Metrafenone” (BASF SE, priority 2009, published 2012).

How the values were obtained:
Botrytis cinerea = assay: Activity against the grey mold Botrytis cinerea in the microtiter plate test; type: cell-based; details: MTP, 405 nm, 7 days after inoculation
Method: The active substances were formulated separately as a stock solution in dimethyl sulfoxide (DMSO) at a concentration of 10 000 ppm. Use Example 1—Activity Against the Grey Mold Botrytis cinerea in the Microtiter Plate Test The stock solutions were mixed according to the ratio, pipetted onto a micro titer plate (MTP) and diluted with water to the stated concentrations. A spore suspension of Botrci cinerea in an aqueous biomalt solution was then added. The plates were placed in a water vapor-saturated chamber at a temperature of 18° C. Using an absorption photometer, the MTPs were measured at 405 nm 7 days after the inoculation. The measured parameters were compared to the growth of the active compound-free control variant (100%) and the fungus-free and active compound-free blank value to determine the relative growth in % of the pathogens in the respective active compounds. These percentages were converted into efficacies. The expected efficacies of active compound mixtures were determined using Colby's formula [R. S. Colby, “Calculating synergistic and antagonistic responses of herbicide combinations”, Weeds 15, 20-22 (1967)] and compared with the observed efficacies.

Pyrenophora teres = assay: Activity against Pyrenophora teres (net blotch on barley) in the microtiter plate test; type: cell-based; details: MTP, 405 nm, 7 days after inoculation
Method: The active substances were formulated separately as a stock solution in dimethyl sulfoxide (DMSO) at a concentration of 10 000 ppm. Use Example 2—Activity Against Pyrenophora teres (Net Blotch on Barley) in the Microtiter Plate Test The stock solutions were mixed according to the ratio, pipetted onto a micro titer plate (MTP) and diluted with water to the stated concentrations. A spore suspension of Pyrenophora teres in an aqueous biomalt solution was then added. The plates were placed in a water vapor-saturated chamber at a temperature of 18° C. Using an absorption photometer, the MTPs were measured at 405 nm 7 days after the inoculation. The measured parameters were compared to the growth of the active compound-free control variant (100%) and the fungus-free and active compound-free blank value to determine the relative growth in % of the pathogens in the respective active compounds. These percentages were converted into efficacies. The expected efficacies of active compound mixtures were determined using Colby's formula [R. S. Colby, “Calculating synergistic and antagonistic responses of herbicide combinations”, Weeds 15, 20-22 (1967)] and compared with the observed efficacies.

SMILES	Observed efficacy (%) (Botrytis cinerea; 16 ppm)	Observed efficacy (%) (Pyrenophora teres; 0.063 ppm)	Observed efficacy (%) (Pyrenophora teres; 1 ppm)	Observed efficacy (%) (Botrytis cinerea; 0.25 ppm)	Observed efficacy (%) (Pyrenophora teres; 0.25 ppm)
COc1cc(C)c(C(=O)c2c(OC)ccc(Br)c2C)c(OC)c1OC [Metrafenon, Metrafenone]	10	3	18		
O=C(NCCc1ncc(C(F)(F)F)cc1Cl)c1ccccc1C(F)(F)F [Fluopyram]		16		18	60
